Experimental findings from US9394307B2, “Fused heteroaryl pyridyl and phenyl benzenesuflonamides as CCR2 modulators for the treatment of inflammation” (ChemoCentryx, Inc., priority 2007, dated 2016) are described below.

Usually IC50 stands for the midpoint of a concentration-inhibition curve. As a reminder, the MRT is a mean duration of stay, worked out from the concentration-time curve. The term Vd denotes the apparent volume that relates the amount in the body to the concentration in plasma or blood. The low end stands for little distribution into tissue, the high end for wide distribution into tissue. The clearance is a measure of how efficiently the substance is removed, as volume per time. A low value points to a low capacity for elimination. What is called bioavailability is dose-corrected exposure relative to a reference, in per cent. Read a high bioavailability as good availability. By Cmax is commonly meant the highest concentration seen after dosing. As a reminder, the Tmax is the time at which the peak concentration occurs.

Series [1] deals with CYP3A4 (Homo sapiens (Human), UniProt P08684). Description: CYP3A4 inhibition assay in pooled human liver microsomes. Format: in vitro ADME. Particulars: NADPH, 37° C., read-out: CYP 3A4 Inhibition IC50. As to the method: (§1) The test compounds were incubated with pooled human liver microsomes at 37° C. in the presence of NADPH and appropriate concentrations of substrates specific for CYP2C9 and 3A4. The final assay concentrations of human liver microsomes and substrates, the initial substrate stock solution concentrations in DMSO, and the times used for the various isozyme incubations are summarized in Table 4.
120 μL of a mixture of human liver microsomes (HLM) in 50 mM potassium phosphate/5 mM MgCl2 buffer was added into all wells of row A in a 96-well plate. The concentration of microsomal protein was 2-fold the intended protein concentration for the particular isozyme assay recorded in Table 4. In addition, 80 μL of this human liver microsome preparation spiked with 1% DMSO was dispensed into all wells of rows B through H.
1.2 μL of each individual test compound in DMSO (10 mM) was added to the first 10 wells of row A (5 different test compounds each in duplicate). Additionally, 1.2 μL of the DMSO stock of the control inhibitor for the isozyme under study was added into the final two wells of row A to give a concentration two-fold above the highest final concentration. (See Table 5 for the final control inhibitor concentrations)
This process was repeated for rows D through G. After mixing, 40 μL was removed and discarded from the wells of row G.
The plate was covered and pre-incubated for 10 minutes in a 37° C. incubator. […]
(§2) Samples were analyzed by the LC-MS/MS method. Each metabolite (Table 6) derived from the particular substrate for each different CYP450 isoform was monitored. […]
(§3) AUCtest, AUCcontrol and AUCblank are the peak area count for the metabolite of the control in the presence of test article or positive inhibitor, the peak area count of metabolite of the control without test article, and peak area count observed in the microsome blank, respectively. […] The IC50 values were calculated using a 4-parameter fit in XLFit™ (IDBS Lid, Guildford, UK).
Background: Microsomes from liver hold many membrane-bound enzymes, among them those of drug oxidation.

Series [2] is described as follows: Intravenous/oral pharmacokinetic study in Sprague-Dawley rats. Format: in vivo. The settings on record: rat, plasma, male Sprague-Dawley rats; for MRT: read-out: Rat PK MRT (converted); for half-life: read-out: Rat PK T1/2. The protocol:
An intravenous/oral pharmacokinetic study with the selected compounds was conducted in male Sprague-Dawley rats weighing between 0.24 and 0.36 kg. Blood samples were collected at predetermined time points and the corresponding plasma samples from the animals were analyzed for test compound concentrations using an LC-MS/MS method. The pharmacokinetic parameters were derived from the plasma concentration versus time curve.
Eight animals weighing between 0.24 and 0.36 kg were used for this study. Two animals were used for the i.v. dosing, whereas the later six were for oral dosing.
For i.v. dosing, a solution formulation of test compound was prepared in propylene glycol/N,N-dimethyl acetamide/EtOH (31.6/31.6/36.8) at 1 mg/mL and each animal received 1 mL/kg. For oral dosing, a the test compounds were suspended in 1% HPMC at 0.5 mg/mL and each animal received 10 mL/kg.
Animals were fasted overnight and examined prior to dosing and at the conclusion of the study. For intravenous dosing, blood (0.2 mL) was drawn at pre-dose and at 2, 5, 10, 15, and 30 minutes, 1, 2, 4, 6, and 8 hours post-dose. For oral dosing, blood (0.2 mL) was drawn at pre-dose and at 5, 15, and 30 minutes, 1, 1.5, 2, 4, 6, 8, and 24 hours post-dose. Blood was sampled from canulated animals and then placed into chilled polypropylene tubes containing sodium EDTA as the anticoagulant and kept on ice until centrifugation. Plasma was collected through centrifugation (Eppendorf Centriguge 5417R) at 12000 rpm and 4° C. for 6 minutes and stored at −20° C. until analysis.
Plasma samples (50 μL) were extracted with 150 μL acetonitrile containing the internal standard on a linear shaker for 10 min. The samples were centrifuged at 4450 RPM for 10 min at 4° C. (Allegra X-15R centrifuge, Beckman Coulter, Inc., Fullerton, Calif.). 80 μL of the resultant supernatant was transferred into new plate wells containing 80 μL 0.1% formic acid in water and thoroughly mixed.
Extracted samples prepared using the above procedure were separated by high-performance liquid chromatography using a Shimadzu (Kyoto, Japan) system equipped with two LC-10 AD pumps and a C-18 column (Waters Sunfire, 2×30 mm, 3.5 μm; 10 μl injection) using a mobile phase consisting of (A) 0.1% formic acid in water and (B) 0.1% formic acid in acetonitrile, at a flow rate of 0.35 mL/min. The gradient was 0-1.5 min 5% B, 1.5-2.5 min 5-95% B, 2.5-2.7 min 95% to 5% B, and 2.7-4.0 min 5% B. The HPLC elute was routed into an Applied Biosystems (Foster City, Calif.) Sciex API 3000 triple quadrupole mass spectrometer, operating in the Turbo Ionspray positive ionization MS/MS mode for analysis. Acquisition and integration were performed with Applied Biosystems-Sciex Analyst software (version 1.4.1). The calibration curve was obtained through a quadratic (i.v.) or linear (p.o.) regression and the calibration range was 4-5000 ng/mL and 2-5000 ng/mL for the i.v. and p.o. studies, respectively.
A total of eleven time points were obtained for each dosing route during the blood collection period. Descriptive pharmacokinetic parameters were determined from the plasma concentration-time curve by a standard non-compartmental analysis (Wagner, 1993) from each animal and dose route. • Half-life (T1/2): Terminal half-life. • Cmax: Maximum plasma concentration • AUC0-∞: Area under the plasma concentration-time curve from time of dosing extrapolated to infinity. • CL: Total body clearance. • MRT0-∞: Mean residence time from the time of dosing extrapolated to infinity • Vdss: Volume of distribution at steady state. • F: Bioavailability.
Pharmacokinetic analysis was performed by using XLFit® v.4.1 (ID Business Solutions Inc., Alameda, Calif.).

In series [3] the target is CCR2 (Homo sapiens (Human), UniProt P41597). Description: CCR2 chemotaxis assay (conventional migration assay, THP-1 cells, MCP-1). It is filed as cell-based.
Procedure: In vitro cell migration assays can be performed (but are not limited to this format) using the 96-well microchamber (called ChemoTX™). […] In this assay, CCR2-expressing cells (such as THP-1) are first incubated with a compound of interest, such as a possible CCR2 antagonist, respectively, at increasing concentrations. Typically, fifty thousand cells per well are used, but the amount can range from 10^3-10^6 cells per well.
THP-1 cells were obtained from the American Type Culture Collection (Manassas, Va.) and cultured in RPMI tissue culture medium supplemented with 10% fetal calf serum (FCS) in a humidified 5% CO2 incubator at 37° C. […] ChemoTX® chemotaxis microchambers were purchased from Neuro Probe (Gaithersburg, Md.). CyQUANT® cell proliferation kits were purchased from Molecular Probes (Eugene, Oreg.).
Conventional migration assay was used to determine the efficacy of potential receptor antagonists in blocking migration mediated through chemokines (such as CCR2). This assay was routinely performed using the ChemoTX® microchamber system with a 5-μm pore-sized polycarbonate membrane. To begin such an assay, chemokine expressing cells (such as THP-1 cells for CCR2 assay) were harvested by centrifugation of cell suspension at 1000 RPM on a GS-6R Beckman centrifuge. The cell pellet was resuspended in chemotaxis buffer (HBSS with 0.1% BSA) at 10×10^6 cells/mL for CCR2 assay. Test compounds at desired concentrations were prepared from 10 mM stock solutions by serial dilutions in chemotaxis buffer. An equal volume of cells and compounds were mixed and incubated at room temperature for 15 minutes. […] To quantify cells migrated across the membrane, 5 μL of 7× CyQUANT® solution was added to each well in the lower chamber, and the fluorescence signal measured on a Spectrafluor Plus fluorescence plate reader (TECAN, Durham, N.C.). The degree of inhibition was determined by comparing migration signals between compound-treated and untreated cells. […]
Series [4] has as its target CYP2C9 (Homo sapiens (Human), UniProt P11712). Description: CYP2C9 inhibition assay in pooled human liver microsomes. It is filed as in vitro ADME. Particulars: NADPH, 37° C., diclofenac substrate, read-out: CYP 2C9 Inhibition IC50. As to the method:
as §1
120 μL of a mixture of human liver microsomes (HLM) in 50 mM potassium phosphate/5 mM MgCl2 buffer was added into all wells of row A in a 96-well plate. The concentration of microsomal protein was 2-fold the intended protein concentration for the particular isozyme assay recorded in Table 4. In addition, 80 μL of this human liver microsome preparation spiked with 1% DMSO was dispensed into all wells of rows B through H. […]
as §2, §3

Series [5] is described as follows: in vivo. Particulars: male, beagle, dog, plasma.
Procedure: (§4) PK parameters were determined by non-compartmental analysis.
A short description of series [6]: Pharmacokinetics and oral bioavailability in the beagle dog. Particulars: male beagle dog, oral 5 mg/kg vs i.v. 1 mg/kg.
Procedure: as §4
The mark [7] stands for this setting: THP-1 cells, 0.1 nM MCP-1, read-out: IC50 in the CCR2 chemotaxis assay.

Values joined by “and” are separate entries in the source; they are usually repeats but may differ in a detail not shown here. Equal entries are not always repeated. Where two headings read alike, the source gives them in different places.

Chain of CCR2 (P41597 other isoform, or with tags, fused parts or gaps isoform P41597-2): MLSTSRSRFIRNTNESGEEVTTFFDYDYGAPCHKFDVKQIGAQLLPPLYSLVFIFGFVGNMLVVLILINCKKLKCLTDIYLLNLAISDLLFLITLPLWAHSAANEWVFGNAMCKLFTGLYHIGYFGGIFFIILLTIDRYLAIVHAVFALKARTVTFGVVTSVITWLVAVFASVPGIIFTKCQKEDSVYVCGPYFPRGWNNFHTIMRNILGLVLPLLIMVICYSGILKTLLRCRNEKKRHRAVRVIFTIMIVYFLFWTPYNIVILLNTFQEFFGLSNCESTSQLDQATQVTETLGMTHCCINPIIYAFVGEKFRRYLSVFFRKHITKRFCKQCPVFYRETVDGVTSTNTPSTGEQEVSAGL
Chain of CYP3A4 (P08684 whole entry): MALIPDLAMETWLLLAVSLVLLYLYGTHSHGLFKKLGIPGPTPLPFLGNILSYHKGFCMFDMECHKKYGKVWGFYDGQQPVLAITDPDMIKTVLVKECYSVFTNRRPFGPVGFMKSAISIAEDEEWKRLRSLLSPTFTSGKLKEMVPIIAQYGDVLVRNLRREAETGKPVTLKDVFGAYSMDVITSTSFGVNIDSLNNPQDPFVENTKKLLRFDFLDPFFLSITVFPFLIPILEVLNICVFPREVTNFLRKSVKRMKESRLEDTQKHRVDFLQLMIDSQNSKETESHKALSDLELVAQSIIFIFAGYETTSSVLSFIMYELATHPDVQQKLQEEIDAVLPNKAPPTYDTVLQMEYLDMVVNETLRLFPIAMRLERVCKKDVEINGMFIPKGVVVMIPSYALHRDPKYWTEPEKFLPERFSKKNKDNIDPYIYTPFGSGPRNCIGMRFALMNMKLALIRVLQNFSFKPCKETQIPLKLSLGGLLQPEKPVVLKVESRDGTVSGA
Chain of CYP2C9 (P11712 whole entry): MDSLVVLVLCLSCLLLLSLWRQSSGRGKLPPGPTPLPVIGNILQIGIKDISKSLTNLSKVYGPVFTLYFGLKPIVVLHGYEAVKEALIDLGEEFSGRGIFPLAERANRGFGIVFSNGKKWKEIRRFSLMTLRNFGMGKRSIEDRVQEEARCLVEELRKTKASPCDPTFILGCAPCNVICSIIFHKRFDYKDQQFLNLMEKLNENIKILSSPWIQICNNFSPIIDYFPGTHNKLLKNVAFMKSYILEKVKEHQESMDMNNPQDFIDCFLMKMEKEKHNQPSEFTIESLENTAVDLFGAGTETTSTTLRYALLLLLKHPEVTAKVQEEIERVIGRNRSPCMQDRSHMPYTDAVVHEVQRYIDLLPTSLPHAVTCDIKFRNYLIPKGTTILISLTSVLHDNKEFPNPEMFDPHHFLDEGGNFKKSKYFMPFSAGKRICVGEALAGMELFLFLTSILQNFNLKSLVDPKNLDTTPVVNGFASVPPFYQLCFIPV

Regarding `Cc1cnc(C(=O)c2ccnc3[nH]ncc23)c(NS(=O)(=O)c2ccc(Cl)c(C(F)(F)F)c2)c1`, in series [1], the IC50 is 3000 nM. Besides, the mean residence time MRT in series [2] is 0.583 h.
Turning to `COC1=C(C(=O)c2ncc(C)cc2NS(=O)(=O)c2ccc(Cl)c(C(F)(F)F)c2)C2C=CNC2N=C1` (stereo not shown), the IC50 in series [1] amounted to 3000 nM. Besides, in series [2], the MRT was 0.367 h and the half-life was 0.317 h.
With `Cc1cnc(C(=O)c2cncc3[nH]ccc23)c(NS(=O)(=O)c2ccc(Cl)c(Cl)c2)c1` [Compound 12, 3,4-Dichloro-N-[5-methyl-2-(1H-pyrrolo[2,3-c]pyridine-4-carbonyl)-pyridin-3-yl]-benzenesulfonamide], the IC50 in series [3] (setting [7]) was less than 1000 nM.
Consider `Cc1cnc(C(=O)c2ncnc3[nH]ccc23)c(NS(=O)(=O)c2ccc(Cl)c(C(F)(F)F)c2)c1` [drawing 78], for which the half-life in series [2] was 2.68 h.
For the molecule `O=C(c1ncc(Cl)cc1NS(=O)(=O)c1ccc(Cl)c(C(F)(F)F)c1)c1cncc2[nH]ccc12` [Compound 11, 4-Chloro-N-[5-chloro-2-(1H-pyrrolo[2,3-c]pyridine-4-carbonyl)-pyridin-3-yl]-3-trifluoromethyl-benzenesulfonamide], the IC50 in series [3] (setting [7]) is less than 1000 nM.
In the case of `O=C(C1=CC=NC2NC=CC12)c1ncc(Cl)cc1NS(=O)(=O)c1ccc(Cl)c(C(F)(F)F)c1` (stereo not shown), the IC50 in series [4] was 3000 nM. In addition, in series [2], the MRT was 0.35 h and the half-life was determined as 0.7 h.
`Cc1cnc(C(=O)c2ncnc3[nH]ccc23)c(NS(=O)(=O)c2ccc(Cl)c(C(F)(F)F)c2)c1` [drawing 76]: the IC50 in series [1] was determined as 20000 nM. Besides, the MRT in series [2] is 2.25 h.
On to `O=C(c1ncc(Cl)cc1NS(=O)(=O)c1ccc(Cl)c(C(F)(F)F)c1)c1ncnc2[nH]ccc12`, for which the IC50 in series [4] turned out to be 15000 nM. In series [2], the MRT is 1.13 h and the half-life was 2.12 h.
In turn, `Cc1cnc(C(=O)c2ncnc3[nH]ccc23)c(NS(=O)(=O)c2ccc(Cl)c(C(F)(F)F)c2)c1` [Compound 5, 4-Chloro-N-[5-methyl-2-(7H-pyrrolo[2,3-d]pyrimidine-4-carbonyl)-pyridin-3-yl]-3-trifluoromethyl-benzenesulfonamide] gave an IC50 in series [3] of roughly 5 nM. In series [5] (iv, 1 mg/kg), this molecule showed an MRT of 7.2 h, a Vd of 0.1 L/kg, a clearance of 0.2 mL/min/kg and a half-life of 4.7 h. Further, the bioavailability in series [5] (oral, 5 mg/kg) was roughly 100%. In addition, in series [5] (po, 5 mg/kg), the Cmax is 44400 ng/mL and ~59.5 µM; the Tmax amounted to 1.5 h. The oral bioavailability result in series [6] was “about 100%”.
